From article PMC6204372, “An RORγt Oral Inhibitor Modulates IL-17 Responses in Peripheral Blood and Intestinal Mucosa of Crohn's Disease Patients” (Frontiers in Immunology, 2018)

Biological target: T1, RORγ (RORγt) ligand-binding domain (Homo sapiens, UniProt P51449)
T1 construct: gene RORC
T1 sequence (P51449 265-507 limits assumed): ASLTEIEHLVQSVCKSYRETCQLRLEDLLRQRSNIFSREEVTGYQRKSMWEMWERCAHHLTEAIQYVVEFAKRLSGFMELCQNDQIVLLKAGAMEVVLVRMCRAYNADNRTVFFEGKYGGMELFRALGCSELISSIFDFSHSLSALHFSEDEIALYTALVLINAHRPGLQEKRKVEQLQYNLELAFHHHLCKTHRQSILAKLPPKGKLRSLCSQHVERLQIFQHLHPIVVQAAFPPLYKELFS
Test: Kd for human RORγ LBD (binding method not stated); also RORγ LBD reporter assay IC50 […]

Kd: 65 nM
Substance: BI119
